Patent publication US20240360067A1, “DERIVATIVES OF ITACONIC ACID AND THEIR USE AS ANTI-INFLAMMATORY AGENTS” (Sitryx Therapeutics Limited, priority 2021, published 2024)

What was measured:
IL-1β = assay: THP-1 AlphaLISA IL-1β cytokine assay (PMA-differentiated THP-1, LPS then nigericin); assay type: cell-based; conditions: 30 min pre-incubation, LPS 24 hr, nigericin 1 hour
Experimental: (§1) Measuring Inhibitory Effects on IL-1β, and IL-6 Cytokine Output from THP-1s
(§2) The cytokine inhibition profiles of compounds of formula (I) were determined in a differentiated THP-1 cell assay. All assays were performed in RPMI-1640 growth medium (Gibco), supplemented with 10% fetal bovine serum (FBS; Gibco), 1% penicillin-streptomycin and 1% sodium pyruvate unless specified otherwise. The IL-1β and IL-6 cytokine inhibition assays were each run in a background of differentiated THP-1 cells as described below. All reagents described were from Sigma-Aldrich unless specified otherwise. Compounds were prepared as 10 mM DMSO stocks.
(§3) THP-1 cells were expanded as a suspension up to 80% confluence in appropriate growth medium. Cells were harvested, suspended, and treated with an appropriate concentration of phorbol 12-myristate 13-acetate (PMA) over a 72 hr period (37° C./5% CO2).
(§4) Following 72 hrs of THP-1 cell incubation, cellular medium was removed and replaced with fresh growth media containing 1% of FBS. Working concentrations of compounds were prepared separately in 10% FBS treated growth medium and pre-incubated with the cells for 30 minutes (37° C./5% CO2). Following the 30 minute compound pre-incubation, THP-1s were treated with an appropriate concentration of LPS and the THP-1s were subsequently incubated for a 24 hr period (37° C./5% CO2). An appropriate final concentration of Nigericin was then dispensed into the THP-1 plates and incubated for 1 hour (37° C./5% CO2) before THP-1 supernatants were harvested and collected in separate polypropylene 96-well holding plates.
(§5) Reagents from each of the IL-1β and IL-6 commercial kits (Perkin Elmer) were prepared and run according to the manufacturer's instructions. Subsequently, fluorescence signal detection in a microplate reader was measured (EnVision® Multilabel Reader, Perkin Elmer).
(§6) Percentage inhibition was calculated per cytokine by normalizing the sample data to the high and low controls used within each plate (+/−LPS respectively).

IL-6 = assay: THP-1 AlphaLISA IL-6 cytokine assay (PMA-differentiated THP-1, LPS then nigericin); assay type: cell-based; conditions: differentiated THP-1 cells, 30 min pre-incubation, LPS 24 hr, nigericin 1 hour
Experimental: as §1, §2, §3, §4, §5, §6

[1] = Hepatocyte stability assay, human; assay type: in vitro ADME; conditions: 10 μM compound, 0.5×10^6 cells/mL, 60 min; for half-life at 10 μM: cryo-preserved hepatocytes, read-out: T½
From the text: (§7) Defrosted cryo-preserved hepatocytes (viability >70%) were used to determine the metabolic stability of a compound via calculation of intrinsic clearance (CIint; a measure of the removal of a compound from the liver in the absence of blood flow and cell binding). Clearance data are particularly important for in vitro work as they can be used in combination with in vivo data to predict the half-life and oral bioavailability of a drug.
(§8) The metabolic stability in hepatocytes assay involved a time-dependent reaction using both positive and negative controls. The cells must be pre-incubated at 37° C. then spiked with test compound (and positive control); samples taken at pre-determined time intervals were analysed to monitor the change in concentration of the initial drug compound over 60 minutes. A buffer incubation reaction (with no hepatocytes present) acted as a negative control and two cocktail solutions, containing compounds with known high and low clearance values (verapamil/7-hydroxycoumarin and propranolol/diltiazem), acted as positive controls. • 1. The assay was run with a cell concentration of 0.5×10^6 cells/mL in Leibovitz buffer. • 2. All compounds and controls were run in duplicate. • 3. Compound concentration was 10 μM. • 4. All compounds and controls were incubated with both cells and buffer to show turnover is due to hepatic metabolism. • 5. All wells on the incubation plate had 326.7 μL of either cells or buffer added. • 6. Prior to assay, cell and buffer-only incubation plates were preincubated for 10 mins at 37° C. • 7. The assay was initiated by adding compounds, 3.3 μL of 1 mM in 10% DMSO-90% Buffer; final DMSO concentration is 0.1%. • 8. Samples were taken at regular timepoints (0, 5, 10, 20, 40, 60 min) until 60 mins. • 9. Sample volume was 40 μL and added to 160 μL of crash solvent (acetonitrile with internal standard) and stored on ice. • 10. At the end of the assay, the crash plates were centrifuged at 3500 rpm for 20 mins at 4° C. • 11. 80 μL of clear supernatant was removed and mixed with 80 μL of deionised water before being analysed by LC-MS/MS.
(§9) Raw LC-MS/MS data were exported to, and analysed in, Microsoft Excel for determination of intrinsic clearance. The percentage remaining of a compound was monitored using the peak area of the initial concentration as 100%. Intrinsic clearance and half-life values were calculated using a graph of the natural log of percentage remaining versus the time of reaction in minutes.

[2] = Hepatocyte stability assay, mouse; assay type: in vitro ADME; conditions: 10 μM compound, 0.5×10^6 cells/mL, 60 min; for half-life at 10 μM: cryo-preserved hepatocytes, read-out: T½
From the text: as §7, §8, §9

NRF2 = NRF2 activation assay (DiscoverX PathHunter NRF2 translocation kit, U2OS cells); assay type: cell-based; conditions: for EC50: U2OS PathHunter cells, 6 hours; for Emax: U2OS
[3] = Homo sapiens, THP-1, differentiated THP-1 cells
[4] = Homo sapiens, +GSH, normalised to dimethyl fumarate high control
[5] = Homo sapiens, −GSH, normalised to dimethyl fumarate high control

Row | IC50 (IL-1β; [3]) [µM] | IC50 (IL-6; Homo sapiens) [µM] | CIint ([1]; Human hepatocytes) [μL min^−1 10^−6 cells] | half-life at 10 μM [1] [h] | CIint ([2]; Mouse hepatocytes) [μL min^−1 10^−6 cells] | half-life at 10 μM [2] [h] | EC50 (NRF2; Homo sapiens, +GSH) [µM] | EC50 (NRF2; Homo sapiens, −GSH) [µM] | SMILES | IC50 (IL-1β; differentiated THP-1 cells) [µM] | IC50 (IL-6) [µM] | EC50 (NRF2; −GSH) [µM] | NRF2 activation Emax, −GSH (NRF2; −GSH, normalised to dimethyl fumarate high control) [%] | T½ ([1]; Human hepatocytes) [min] | T½ ([2]; Mouse hepatocytes) [min] | Emax (NRF2; [4]) [%] | Emax (NRF2; [5]) [%]
1 | 7.9 | 65.6 | 8 | 3.65 | 11 | 1.97 | – | – | C=C(CC(=O)O)C(=O)OC1CCCc2cc(C(F)(F)F)ccc21 (single isomer, unassigned) [Example 7, 3-(((6-(trifluoromethyl)-1,2,3,4-tetrahydronaphthalen-1-yl)oxy)carbonyl)but-3-enoic acid] | – | – | – | – | – | – | – | –
2 | 9.2 | > 100 | 6 | 5.23 | 8 | 3.65 | – | – | C=C(CC(=O)O)C(=O)OC1(c2ccc(C(F)(F)F)cc2)COC1 [Example 4, 3-(((3-(4-(trifluoromethyl)phenyl)oxetan-3-yl)oxy)carbonyl)but-3-enoic acid] | – | – | – | – | – | – | – | –
3 | 7.6 | 10.8 | >460 | < 0.05 | >460 | < 0.05 | > 100 | 51 | C=C(CC(=O)OC)C(=O)OC1(c2ccc(C(F)(F)F)cc2)CCC1 [Example 8, 4-methyl 1-(1-(4-(trifluoromethyl)phenyl)cyclobutyl) 2-methylenesuccinate] | – | – | – | – | – | – | 38 | 51
4 | 60 | 13.8 | 98 | 0.2 | >460 | < 0.05 | – | – | C=C(CC(=O)N(C)C)C(=O)OC1(c2ccc(C(F)(F)F)cc2)CCC1 [Example 10, 1-(4-(trifluoromethyl)phenyl)cyclobutyl 4-(dimethylamino)-2-methylene-4-oxobutanoate] | – | – | – | – | – | – | – | –
5 | 9.9 | 13.2 | 9 | 2.32 | 162 | 0.15 | 45.7 | 33.1 | C=C(CC(N)=O)C(=O)OC1(c2ccc(C(F)(F)F)cc2)CCC1 [Example 11, 1-(4-(trifluoromethyl)phenyl)cyclobutyl 4-amino-2-methylene-4-oxobutanoate] | – | – | – | – | – | – | 100 | 117
6 | 5.9 | 5.3 | 114 | 0.183 | >460 | < 0.05 | – | – | C=C(CC(=O)NCc1nccn1C)C(=O)OC1(c2ccc(C(F)(F)F)cc2)CCC1 [Example 16, 1-(4-(trifluoromethyl)phenyl)cyclobutyl 4-(((1-methyl-1H-imidazol-2-yl)methyl)amino)-2-methylene-4-oxobutanoate] | – | – | – | – | – | – | – | –
7 | 15.3 | 12.4 | – | – | – | – | – | – | C=C(CC(=O)NC(CO)C(N)=O)C(=O)OC1(c2ccc(C(F)(F)F)cc2)CCC1 (stereo not drawn) [Example 17, 1-(4-(trifluoromethyl)phenyl)cyclobutyl 4-((1-amino-3-hydroxy-1-oxopropan-2-yl)amino)-2-methylene-4-oxobutanoate] | – | – | – | – | – | – | – | –
8 | > 100 | > 100 | – | – | – | – | – | – | C=C(CC(=O)OC)C(=O)OC [dimethyl itaconate, reference compound] | – | – | – | – | – | – | – | –

The remaining lines, values behind:

Row | SMILES | IC50 (IL-1β; [3]) [µM] | IC50 (IL-6; Homo sapiens) [µM] | CIint ([1]; Human hepatocytes) [μL min^−1 10^−6 cells] | half-life at 10 μM [1] [h] | CIint ([2]; Mouse hepatocytes) [μL min^−1 10^−6 cells] | half-life at 10 μM [2] [h] | EC50 (NRF2; Homo sapiens, +GSH) [µM] | EC50 (NRF2; Homo sapiens, −GSH) [µM] | IC50 (IL-1β; differentiated THP-1 cells) [µM] | IC50 (IL-6) [µM] | EC50 (NRF2; −GSH) [µM] | NRF2 activation Emax, −GSH (NRF2; −GSH, normalised to dimethyl fumarate high control) [%] | T½ ([1]; Human hepatocytes) [min] | T½ ([2]; Mouse hepatocytes) [min] | Emax (NRF2; [4]) [%] | Emax (NRF2; [5]) [%]
9 | C=C(CC(=O)O)C(=O)OC [1-monomethyl itaconate, reference compound] | – | – | – | – | – | – | – | – | > 100 | > 100 | 30.1 | 44 | – | – | – | –
10 | C=C(CC(=O)OCCCCCCCC)C(=O)O [4-octyl itaconate, reference compound] | – | – | 401 | – | 351 | – | – | – | – | – | – | – | 4 | 4 | – | –
11 | C=C(CC(=O)O)C(=O)O[C@@H](C)c1ccc(C(F)(F)F)cc1 [Example 1, (S)-3-((1-(4-(trifluoromethyl)phenyl)ethoxy)carbonyl)but-3-enoic acid] | 5.4 | 54.8 | <3 | > 7.67 | <3 | > 7.67 | – | – | – | – | – | – | – | – | – | –
12 | C=C(CC(=O)O)C(=O)OC1(c2ccc(C(F)(F)F)cc2)CCC1 [Example 2, 3-((1-(4-(trifluoromethyl)phenyl)cyclobutoxy)carbonyl)but-3-enoic acid] | 4.4 | > 100 | 9 | 2.1 | <3 | > 7.67 | > 100 | > 100 | – | – | – | – | – | – | 14 | 26
13 | C=C(CC(=O)O)C(=O)OC1(c2ccc(C(F)(F)F)c(F)c2)CCC1 [Example 3, 3-((1-(3-fluoro-4-(trifluoromethyl)phenyl)cyclobutoxy)carbonyl)but-3-enoic acid] | 4.8 | 53.7 | <3 | > 7.67 | <3 | > 7.67 | – | – | – | – | – | – | – | – | – | –
14 | C=C(CC(=O)O)C(=O)OC1(c2ccc(C(F)(F)F)cn2)CCC1 [Example 5, 3-((1-(5-(trifluoromethyl)pyridin-2-yl)cyclobutoxy)carbonyl)but-3-enoic acid] | 9 | > 31.6 | <3 | > 7.67 | <3 | > 7.67 | – | – | – | – | – | – | – | – | – | –
15 | C=C(CC(=O)O)C(=O)OC1(c2ccc(C(F)(F)F)s2)CCC1 [Example 6, 3-((1-(5-(trifluoromethyl)thiophen-2-yl)cyclobutoxy)carbonyl)but-3-enoic acid] | 9.5 | > 100 | 13 | 2.38 | <3 | > 7.67 | – | – | – | – | – | – | – | – | – | –
16 | C=C(CC(=O)NC)C(=O)OC1(c2ccc(C(F)(F)F)cc2)CCC1 [Example 9, 1-(4-(trifluoromethyl)phenyl)cyclobutyl 4-(methylamino)-2-methylene-4-oxobutanoate] | 12.6 | 11.1 | 27 | 0.733 | 449 | 0.05 | – | – | – | – | – | – | – | – | – | –
17 | C=C(CC(=O)NCCN(C)C)C(=O)OC1(c2ccc(C(F)(F)F)cc2)CCC1 [Example 12, 1-(4-(trifluoromethyl)phenyl)cyclobutyl 4-((2-(dimethylamino)ethyl)amino)-2-methylene-4-oxobutanoate] | 3.1 | 4 | 59 | 0.417 | 138 | 0.15 | – | – | – | – | – | – | – | – | – | –
